Values quoted from earlier work, collected in patent publication US20090142428A1, “Extracts from the Bark of Corynanthe Species and Use Thereof as Well as Medicaments, Dietetic Food Products and Pharmaceutical Preparations Containing Said Extracts” (DR. WILLMAR SCHWABE GMBH & CO. KG, priority 2005, published 2009).

Test system: 5-α-reductase
Settings: uptake of finasteride

CC(C)(C)NC(=O)[C@H]1CC[C@H]2[C@@H]3CC[C@H]4NC(=O)C=C[C@]4(C)[C@H]3CC[C@]12C [finasteride]
reduction of the prostatic DHT concentration: up to 85% | average reduction of the prostate size (period of up to 12 months): about 20%
